According to ChEMBL document CHEMBL1139296, “Pleuromutilin derivatives having a purine ring. Part 2: influence of the central spacer on the antibacterial activity against Gram-positive pathogens” (2009):

Tests used:
Format in all cases: functional
[1] = test system: Streptococcus pyogenes; assay: Antimicrobial activity against Streptococcus pyogenes […] by NCCLS method
[2] = test system: Haemophilus influenzae; assay: Antimicrobial activity against Haemophilus influenzae TH13 by NCCLS method
[3] = test system: Moraxella catarrhalis; assay: Antimicrobial activity against Moraxella catarrhalis K1209 by NCCLS method
[4] = test system: Staphylococcus aureus; assay: Antimicrobial activity against methicillin-susceptible Staphylococcus aureus infected mouse assessed as survival rate administered iv after 1 hr of infection
[5] = test system: Staphylococcus aureus; assay: Antimicrobial activity against methicillin-resistant Staphylococcus aureus KMP9
[6] = test system: Streptococcus pneumoniae; assay: Antimicrobial activity against penicillin-resistant Streptococcus pneumoniae KT2524 by NCCLS method
[7] = test system: Enterococcus faecium; assay: Antimicrobial activity against vancomycin-resistant Enterococcus faecium KU1778 by NCCLS method
[8] = test system: Streptococcus pneumoniae; assay: Antimicrobial activity against penicillin-susceptible Streptococcus pneumoniae ATCC 49619 by NCCLS method
[9] = test system: Staphylococcus aureus; assay: Antimicrobial activity against methicillin-susceptible Staphylococcus aureus Smith by NCCLS method

| Structure (SMILES) | MIC [1] [µg/mL] | MIC [2] [µg/mL] | MIC [3] [µg/mL] | ED50 [4] [mg/kg] | MIC [5] [µg/mL] | MIC [6] [µg/mL] | MIC [7] [µg/mL] | MIC [8] [µg/mL] | MIC [9] [µg/mL] |
| --- | --- | --- | --- | --- | --- | --- | --- | --- | --- |
| C=C[C@]1(C)C[C@@H](OC(=O)CN2CCN(C(=O)CCn3cnc4c(N5CCC(N)C5)ncnc43)CC2)[C@]2(C)[C@H](C)CC[C@]3(CCC(=O)[C@@H]32)[C@@H](C)[C@@H]1O.Cl.Cl (some centres not stated) | 0.032 | 4 | 0.25 | 0.8 | 0.5 | 0.063 | 0.5 | 0.063 | 0.25 |
| C=C[C@]1(C)C[C@@H](OC(=O)CN(C)CCN(C)C(=O)CCn2cnc3c(N4CCC(N)C4)ncnc32)[C@]2(C)[C@H](C)CC[C@]3(CCC(=O)[C@@H]32)[C@@H](C)[C@@H]1O.Cl.Cl (some centres not stated) | 0.063 | 8 | 0.25 | > 3.13 | 4 | 0.125 | 1 | 0.063 | 1 |
| C=C[C@]1(C)C[C@@H](OC(=O)CSC2CCCN(C(=O)CCn3cnc4c(N5CCNCC5)nc(N)nc43)C2)[C@]2(C)[C@H](C)CC[C@]3(CCC(=O)[C@@H]32)[C@@H](C)[C@@H]1O.Cl (some centres not stated) | 0.016 | 2 | 0.125 | 3.13 | 1 | 0.032 | 0.25 | 0.032 | 0.5 |
| C=C[C@]1(C)C[C@@H](OC(=O)CSCC2CN(C(=O)CCn3cnc4c(N5CCNCC5)nc(N)nc43)CCO2)[C@]2(C)[C@H](C)CC[C@]3(CCC(=O)[C@@H]32)[C@@H](C)[C@@H]1O.Cl (some centres not stated) | 0.032 | 8 | 0.25 | 4.81 | 2 | 0.125 | 0.5 | 0.063 | 1 |
| C=C[C@]1(C)C[C@@H](OC(=O)CS[C@@H]2CCN(C(=O)CCn3cnc4c(N5CCNCC5)nc(N)nc43)C2)[C@]2(C)[C@H](C)CC[C@]3(CCC(=O)[C@@H]32)[C@@H](C)[C@@H]1O.Cl | 0.032 | 2 | 0.25 | 1.28 | 2 | 0.125 | 0.5 | 0.063 | 0.05 |
| C=C[C@]1(C)C[C@@H](OC(=O)CSCCN(C)C(=O)CCn2cnc3c(N4CCC(N)C4)ncnc32)[C@]2(C)[C@H](C)CC[C@]3(CCC(=O)[C@@H]32)[C@@H](C)[C@@H]1O.Cl (some centres not stated) | ≤ 0.004 | 2 | 0.125 | 1.76 | 0.5 | 0.016 | 0.063 | 0.016 | 0.25 |
| C=C[C@]1(C)C[C@@H](OC(=O)CSC2CCN(C(=O)CCn3cnc4c(N5CCNCC5)nc(N)nc43)CC2)[C@]2(C)[C@H](C)CC[C@]3(CCC(=O)[C@@H]32)[C@@H](C)[C@@H]1O.Cl | 0.032 | 1 | 0.25 | 1.86 | 0.5 | 0.063 | 0.125 | 0.063 | 0.25 |
| CC[C@]1(C)C[C@@H](OC(=O)CS(=O)(=O)C2CCN(C(=O)CCn3cnc4c(N5CCC(N)C5)ncnc43)CC2)[C@]2(C)[C@H](C)CC[C@]3(CCC(=O)[C@@H]32)[C@@H](C)[C@@H]1O.Cl (some centres not stated) | 0.032 | 4 | 0.125 | 1.79 | 2 | 0.125 | 1 | 0.063 | 0.5 |
| C=C[C@]1(C)C[C@@H](OC(=O)CS[C@H]2CCN(C(=O)CCn3cnc4c(N5CCNCC5)nc(N)nc43)C2)[C@]2(C)[C@H](C)CC[C@]3(CCC(=O)[C@@H]32)[C@@H](C)[C@@H]1O.Cl | 0.016 | 2 | 0.25 | 3.16 | 1 | 0.125 | 0.25 | 0.063 | 0.5 |
| C=C[C@]1(C)C[C@@H](OC(=O)CNC2CCN(C(=O)CCn3cnc4c(N5CCC(N)C5)ncnc43)CC2)[C@]2(C)[C@H](C)CC[C@]3(CCC(=O)[C@@H]32)[C@@H](C)[C@@H]1O.Cl (some centres not stated) | 0.063 | 2 | 0.25 | 1.75 | 2 | 0.125 | 0.5 | 0.125 | 0.25 |
| C=C[C@]1(C)C[C@@H](OC(=O)CSCCCN(C)C(=O)CCn2cnc3c(N4CCC(N)C4)ncnc32)[C@]2(C)[C@H](C)CC[C@]3(CCC(=O)[C@@H]32)[C@@H](C)[C@@H]1O.Cl (some centres not stated) | 0.008 | 1 | 0.063 | 0.86 | 0.25 | 0.016 | 0.063 | 0.016 | 0.125 |
| C=C[C@]1(C)C[C@@H](OC(=O)CSCC2CCN(C(=O)CCn3cnc4c(N5CCNCC5)nc(N)nc43)CC2)[C@]2(C)[C@H](C)CC[C@]3(CCC(=O)[C@@H]32)[C@@H](C)[C@@H]1O.Cl | 0.016 | 4 | 0.125 | 2.77 | 0.5 | 0.032 | 0.063 | 0.032 | 0.25 |
| C=C[C@]1(C)C[C@@H](OC(=O)CSC2CCN(C(=O)CCn3cnc4c(N5CCC(N)C5)ncnc43)CC2)[C@]2(C)[C@H](C)CC[C@]3(CCC(=O)[C@@H]32)[C@@H](C)[C@@H]1O.Cl (some centres not stated) | 0.016 | 1 | 0.032 | 1.47 | 0.125 | 0.032 | 0.032 | 0.016 | 0.063 |
| CC[C@]1(C)C[C@@H](OC(=O)CSC2CCN(C(=O)CCn3cnc4c(N5CCNCC5)nc(N)nc43)CC2)[C@]2(C)[C@H](C)CC[C@]3(CCC(=O)[C@@H]32)[C@@H](C)[C@@H]1O.Cl | 0.032 | 1 | 0.125 | 1.66 | 0.25 | 0.063 | 0.125 | 0.063 | 0.25 |
| C=C[C@]1(C)C[C@@H](OC(=O)CSC2CN(C(=O)CCn3cnc4c(N5CCNCC5)nc(N)nc43)C2)[C@]2(C)[C@H](C)CC[C@]3(CCC(=O)[C@@H]32)[C@@H](C)[C@@H]1O.Cl | ≤ 0.004 | 2 | 0.125 | 4.07 | 2 | 0.25 | 0.5 | 0.125 | 0.5 |
| C=C[C@]1(C)C[C@@H](OC(=O)CSC2CCCN(C(=O)CCn3cnc4c(N5CCC(N)C5)ncnc43)C2)[C@]2(C)[C@H](C)CC[C@]3(CCC(=O)[C@@H]32)[C@@H](C)[C@@H]1O.Cl (some centres not stated) | 0.008 | 2 | 0.063 | 2.02 | 0.5 | 0.016 | 0.063 | 0.016 | 0.25 |
| C=C[C@]1(C)C[C@@H](OC(=O)CSC2CCN(C(=O)CCn3cnc4c(N5CCNCC5)nc(N)nc43)C2)[C@]2(C)[C@H](C)CC[C@]3(CCC(=O)[C@@H]32)[C@@H](C)[C@@H]1O.Cl (some centres not stated) | ≤ 0.004 | 1 | 0.125 | 2.61 | 1 | 0.125 | 0.25 | 0.063 | 0.25 |
| CC[C@]1(C)C[C@@H](OC(=O)COC2CCN(C(=O)CCn3cnc4c(N5CCC(N)C5)ncnc43)CC2)[C@]2(C)[C@H](C)CC[C@]3(CCC(=O)[C@@H]32)[C@@H](C)[C@@H]1O.Cl (some centres not stated) | 0.032 | 4 | 0.125 | 2.04 | 0.5 | 0.063 | 0.125 | 0.032 | 0.25 |
